Patent publication US20260085036A1 (MiHKAL GmbH, priority 2022, published 2026)

Tests used:
[1] = Stability study in phosphate buffers pH 7.4 and pH 8.0; format: physicochemical; conditions: phosphate buffer pH 7.4/pH 8.0, 37° C.
Description: (§1) Three novel compounds i.e., tert-butyl (2,5-dimethoxy-4-methylphenethyl)carbamate (Preparative Example 18), tert-butyl (2,5-dimethoxyphenethyl)carbamate (Preparative Example 7), and N-(3,4,5-Trimethoxyphenethyl-2-hydroxy-acetophenon imine (Preparative Example 17) were tested for their stability in 1% hydrochloric acid (HCl) as well as in phosphate buffers at pH 7.4 and pH 8.0. These conditions were selected to provide insights into the chemical stability of compounds at a pH values similar to conditions within the human body. The diluted hydrochloric acid (pH 1) represents gastric acid within the stomach whereas the potassium phosphate buffers at pH 7.4 and pH 8.0 simulate the conditions in the human blood and small intestine, respectively.
(§2) 4 mg of each test compound was diluted in either HCl solution or phosphate buffer (0.1 M) to give a solution of 1 mg/ml. Regarding the acidic testing with hydrochloric acid, 2 ml of aqueous test compound solutions were then added to 2 ml of 0.64 M HCl, yielding a final HCl concentration of 0.32 M (pH 0.5). Since all compounds tested, represent «free bases», a minimal amount of 100-200 microliters of dimethylsulfoxide (DMSO) has been added to avoid aggregation effects during testing. […] Concentrations of parent compound were analyzed at various timepoints using LC-MS. […]

[2] = cited from earlier work
human DAT = molecular target: T1, human DAT (Homo sapiens, UniProt Q01959); experiment: Uptake inhibition assay, DAT; format: cell-based
T1 construct: expressed in transfected cells
Description: (§3) Human embryonic kidney (HEK) 293 cells stably expressing human DAT, NET or SERT were maintained in humidified atmosphere (37° C., 5% CO2) in Dulbecco's Modified Eagle Medium (DMEM), supplemented with 10% heat-inactivated fetal calf serum (FCS), streptomycin (100 μg×100 mL^−1) and penicillin (100 U×100 mL^−1). Geneticin (50 μg×mL^−1) was used as selection antibiotic.
(§4) One day before the experiment, HEK293 cells expressing the respective transporters (DAT, NET or SERT) were seeded onto poly-D-lysine coated 96 well plates at a density of 30,000 cells per well in a final volume of 200 μL. For uptake experiments, the cell culture medium was replaced with […] Krebs-HEPES buffer (KHB; 25 mM HEPES, 120 mM NaCl, 5 mM KCl, 1.2 mM CaCl2, 1.2 mM MgSO4, and 5 mM D-glucose, pH 7.3). Then, the buffer was replaced with various concentrations of test compounds for 5 minutes; subsequent to that, 0.1 μM [^3H]5-HT (SERT), 0.1 μM [^3H]dopamine (DAT), or 0.05 μM [^3H]MPP^+ (NET) in KHB was added to yield a total volume of 50 μL in the well. For determination of non-specific uptake, paroxetine was used in case of SERT (3 μM), vanoxerine (also known as GBR12909) for DAT and NET (50 μM).
(§5) Uptake was terminated after 60 s (SERT) or 180 s (DAT, NET) by washing the cells with 200 μL ice-cold KHB. Subsequently, the cells were lysed with 200 μL Ultima Gold™ XR liquid scintillation cocktail, and the amount of tritium in the cells was measured with a Wallac 1450 MicroBeta® TriLux liquid scintillation counter. Monoamine uptake data were fitted by nonlinear regression, Vmax and Km values were calculated from Michaelis Menten's least-squares fit with GraphPad Prism (Prism 9.0.2, GraphPad Software, San Diego, CA, USA).
(§6) RT054 and RT056 were tested in both uptake inhibition and release assays, and the corresponding prodrug AM176 was tested in uptake inhibition assays. AM176 was tested either as the undecomposed prodrug or after treatment with 0.5% HCl at 37° C. for 24 hours in order to simulate digestion of the prodrug by gastric acid inside the body after peroral administration.

human NET = molecular target: T2, human NET (Homo sapiens, UniProt P23975); experiment: Uptake inhibition assay, NET; format: cell-based
T2 construct: expressed in transfected cells
Description: as §3, §4, §5, §6

human SERT = molecular target: T3, human SERT (Homo sapiens, UniProt P31645); experiment: Uptake inhibition assay, SERT; format: cell-based
T3 construct: expressed in transfected cells
Description: as §3, §4, §5, §6

[3] = Stability study in 1% HCl (representative of gastric acid); format: physicochemical; conditions: 37° C., approximately 21 hours, LC-MS
Description: as §1, §2

[4] = patients; cited from earlier work
[5] = HEK293 cells stably expressing DAT, [3H]dopamine
[6] = HEK293 cells stably expressing NET, [3H]MPP+
[7] = HEK293 cells stably expressing SERT, [3H]5-HT

T3 sequence (P31645 whole entry): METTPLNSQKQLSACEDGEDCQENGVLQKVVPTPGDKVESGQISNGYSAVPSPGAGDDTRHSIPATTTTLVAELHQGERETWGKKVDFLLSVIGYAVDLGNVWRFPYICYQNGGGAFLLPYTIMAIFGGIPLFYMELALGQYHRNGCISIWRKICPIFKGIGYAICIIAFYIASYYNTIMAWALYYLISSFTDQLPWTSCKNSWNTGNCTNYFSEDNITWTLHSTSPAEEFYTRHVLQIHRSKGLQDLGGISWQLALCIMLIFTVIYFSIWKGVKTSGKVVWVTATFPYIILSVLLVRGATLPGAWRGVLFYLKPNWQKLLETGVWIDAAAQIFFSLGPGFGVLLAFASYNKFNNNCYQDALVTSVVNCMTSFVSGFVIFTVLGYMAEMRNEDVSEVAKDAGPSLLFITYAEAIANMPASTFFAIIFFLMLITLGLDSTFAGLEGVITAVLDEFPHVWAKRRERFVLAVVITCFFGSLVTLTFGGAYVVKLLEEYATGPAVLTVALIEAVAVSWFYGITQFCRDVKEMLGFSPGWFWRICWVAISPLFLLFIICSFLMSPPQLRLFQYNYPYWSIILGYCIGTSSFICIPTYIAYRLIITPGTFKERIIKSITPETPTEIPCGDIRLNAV
T1 sequence (Q01959 whole entry): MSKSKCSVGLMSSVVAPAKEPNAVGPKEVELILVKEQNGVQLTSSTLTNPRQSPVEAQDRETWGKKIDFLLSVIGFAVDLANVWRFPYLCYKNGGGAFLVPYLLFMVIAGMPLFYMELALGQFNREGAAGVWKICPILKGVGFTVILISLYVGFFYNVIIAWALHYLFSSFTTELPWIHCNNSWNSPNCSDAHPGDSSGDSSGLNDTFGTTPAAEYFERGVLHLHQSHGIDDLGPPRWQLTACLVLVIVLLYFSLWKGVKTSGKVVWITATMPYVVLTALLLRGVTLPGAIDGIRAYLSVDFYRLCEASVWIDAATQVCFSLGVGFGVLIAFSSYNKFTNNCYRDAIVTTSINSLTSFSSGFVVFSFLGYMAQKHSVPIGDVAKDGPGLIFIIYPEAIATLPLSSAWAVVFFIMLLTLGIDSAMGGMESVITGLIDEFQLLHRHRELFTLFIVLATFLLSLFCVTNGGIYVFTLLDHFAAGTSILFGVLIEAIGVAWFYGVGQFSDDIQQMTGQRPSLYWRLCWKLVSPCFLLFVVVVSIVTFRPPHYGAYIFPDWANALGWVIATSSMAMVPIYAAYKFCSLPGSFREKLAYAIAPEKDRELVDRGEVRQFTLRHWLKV
T2 sequence (P23975 whole entry): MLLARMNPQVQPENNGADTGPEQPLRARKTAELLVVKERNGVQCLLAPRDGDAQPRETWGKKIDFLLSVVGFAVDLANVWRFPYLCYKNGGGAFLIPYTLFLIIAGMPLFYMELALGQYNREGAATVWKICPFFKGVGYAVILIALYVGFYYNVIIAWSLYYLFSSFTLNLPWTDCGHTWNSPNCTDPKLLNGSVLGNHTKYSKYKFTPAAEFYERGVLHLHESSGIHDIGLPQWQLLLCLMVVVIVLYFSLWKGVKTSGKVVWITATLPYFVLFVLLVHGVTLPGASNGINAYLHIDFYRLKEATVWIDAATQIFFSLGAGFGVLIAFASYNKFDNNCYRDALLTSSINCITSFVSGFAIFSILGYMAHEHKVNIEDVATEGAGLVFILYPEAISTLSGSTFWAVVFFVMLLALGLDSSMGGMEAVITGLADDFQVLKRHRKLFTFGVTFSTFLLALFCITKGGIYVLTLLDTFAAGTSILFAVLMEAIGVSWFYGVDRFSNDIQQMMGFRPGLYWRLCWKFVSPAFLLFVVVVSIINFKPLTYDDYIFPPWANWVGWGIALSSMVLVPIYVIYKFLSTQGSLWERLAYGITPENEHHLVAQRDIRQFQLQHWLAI

COc1ccc(OC)c(CCNC(=O)OC(C)(C)C)c1 [Preparative Example 7, tert.-butyl-(2,5-Dimethoxyphenethyl)carbamate]
Degradation at neutral and basic conditions [1]: complete stability

NCCc1ccccc1 [phenethylamine (PEA), phenethylamine]
half-life after oral consumption [2]: approximately 10 minutes

CNC(C)Cc1ccc2c(c1)OCS2 (centres unmarked) [RT056, Benzoxathiol-6-yl-N-methyl-propan-2-amine]
IC50 (human DAT; [5]): 0.9 µM | IC50 (human NET; [6]): 1.8 µM | IC50 (human SERT; [7]): 4.5 µM

CC(Cc1ccc2c(c1)OCS2)N(C)C(=O)OC(C)(C)C (centres unmarked) [AM176, tert-butyl (1-benzo[d][1,3]oxathiole-6-yl)propan-2-yl(methyl)carbamate]
IC50 (human DAT; HCl-treated (0.5% HCl at 37° C. for 24 hours), HEK293 cells expressing DAT): 3.4 µM | Interaction with DAT in uptake inhibition assay (in words) (human DAT; after pre-treatment with HCl): inhibits substrate-uptake via all monoamine transporters in a competitive manner | Interaction with DAT in uptake inhibition assay (in words) (human DAT; without pre-treatment with HCl): no interaction | IC50 (human NET; HCl-treated (0.5% HCl at 37° C. for 24 hours), HEK293 cells expressing NET): 9.2 µM | Interaction with NET in uptake inhibition assay (in words) (human NET; after pre-treatment with HCl): inhibits substrate-uptake via all monoamine transporters in a competitive manner | Interaction with NET in uptake inhibition assay (in words) (human NET; without pre-treatment with HCl): no interaction | IC50 (human SERT; HCl-treated (0.5% HCl at 37° C. for 24 hours), HEK293 cells expressing SERT): 18.3 µM | Interaction with SERT in uptake inhibition assay (in words) (human SERT; after pre-treatment with HCl): inhibits substrate-uptake via all monoamine transporters in a competitive manner | Interaction with SERT in uptake inhibition assay (in words) (human SERT; without pre-treatment with HCl): no interaction

CC(N)Cc1ccc2c(c1)OCS2 (centres unmarked) [RT054, Benzoxathiol-6-yl-propan-2-amine, reference compound]
IC50 (human DAT; [5]): 1.3 µM | IC50 (human NET; [6]): 0.8 µM | IC50 (human SERT; [7]): 3.6 µM

COc1cc(CC/N=C(\C)c2ccccc2O)cc(OC)c1OC
Degradation in 1% HCl to the corresponding drug [3]: more retarded degradation behavior

COc1cc(CCNC(=O)OC(C)(C)C)c(OC)cc1C [Preparative Example 18, t-butyl-(2,5-Dimethoxy-4-methylphenethyl)carbamate]
Degradation at neutral and basic conditions [1]: complete stability

COc1cc(CCN)cc(OC)c1OC [Mescaline, mescaline]
oral dose to cause the desired psychedelic state [4]: over 200 mg
